How the values were obtained:
[1] = target: T1, interleukin-1β converting enzyme (ICE) (Homo sapiens, UniProt P29466); experiment: Enzyme assay with UV-visible substrate (Succinyl-Tyr-Val-Ala-Asp-pNitroanilide); format: biochemical; conditions: Example 2 table
T1 sequence (P29466 120-297 limits assumed): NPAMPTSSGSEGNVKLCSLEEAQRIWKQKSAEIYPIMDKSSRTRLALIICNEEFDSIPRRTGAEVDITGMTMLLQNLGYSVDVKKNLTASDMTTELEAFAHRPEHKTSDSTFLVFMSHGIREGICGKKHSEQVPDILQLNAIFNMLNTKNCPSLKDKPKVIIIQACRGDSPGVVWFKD
T1 sequence (P29466 317-404 limits assumed): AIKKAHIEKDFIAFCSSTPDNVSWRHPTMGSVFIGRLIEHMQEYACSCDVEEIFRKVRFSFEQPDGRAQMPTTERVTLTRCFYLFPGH
Protocol: 1. Enzyme assay with UV-visible substrate
This assay is run using an Succinyl-Tyr-Val-Ala-Asp-pNitroanilide substrate (SEQ ID NO: 1). Synthesis of analogous substrates is described by L. A. Reiter (Int. J. Peptide Protein Res. 43, 87-96 (1994)). The assay mixture contains: […]
The visible ICE assay is run in a 96-well microtiter plate. Buffer, ICE and DMSO (if inhibitor is present) are added to the wells in the order listed. The components are left to incubate at room temperature for 15 minutes starting at the time that all components are present in all wells. The microtiter plate reader is set to incubate at 37° C. After the 15 minute incubation, substrate is added directly to the wells and the reaction is monitored by following the release of the chromophore (pNA) at 405-603 nm at 37° C. for 20 minutes. A linear fit of the data is performed and the rate is calculated in mOD/min. DMSO is only present during experiments involving inhibitors, buffer is used to make up the volume to 100 μl in the other experiments.
(§1) For determination of enzyme inhibition constants (Ki) or the mode of inhibition (competitive, uncompetitive or noncompetitive), the rate data determined in the enzyme assays at varying inhibitor concentrations are computer-fit to standard enzyme kinetic equations (see I. H. Segel, Enzyme Kinetics, Wiley-Interscience, 1975).

[2] = target: T1, interleukin-1β converting enzyme (ICE); experiment: Enzyme assay with fluorescent substrate (Acetyl-Tyr-Val-Ala-Asp-AMC); format: biochemical; conditions: Example 2 table, read-out: Fluorescence Ki
Protocol: 2. Enzyme Assay with Fluorescent Substrate
This assay is run essentially according to Thornberry et al. (Nature 356: 768-774 (1992)), using substrate 17 referenced in that article. The substrate is: Acetyl-Tyr-Val-Ala-Asp-amino-4-methylcoumarin (AMC) (SEQ ID NO: 2). The following components are mixed: […]
The assay is run in a 96 well microtiter plate. Buffer and ICE are added to the wells. The components are left to incubate at 37° C. for 15 minutes in a temperature-controlled wellplate. After the 15 minute incubation, the reaction is started by adding substrate directly to the wells and the reaction is monitored @37° C. for 30 minutes by following the release of the AMC fluorophore using an excitation wavelength for 380 nm and an emission wavelength of 460 nm. A linear fit of the data for each well is performed and a rate is determined in fluorescence units per second.
as §1

[3] = test system: mature IL-1β, Human Peripheral Blood Mononuclear Cells (PBMC); experiment: Cell assay: IL-1β assay with human PBMC or enriched adherent mononuclear cells; format: cell-based; conditions: Example 2 table; LPS-stimulated cells, mature IL-1β by ELISA
Text: IL-1β Assay with a Mixed Population of Human Peripheral Blood Mononuclear Cells (PBMC) or Enriched Adherent Mononuclear Cells
Processing of pre-IL-1β by ICE can be measured in cell culture using a variety of cell sources. Human PBMC obtained from healthy donors provides a mixed population of lymphocyte subtypes and mononuclear cells that produce a spectrum of interleukins and cytokines in response to many classes of physiological stimulators. Adherent mononuclear cells from PBMC provides an enriched source of normal monocytes for selective studies of cytokine production by activated cells.
An initial dilution series of test compound in DMSO or ethanol is prepared, with a subsequent dilution into RPMI-10% FBS media (containing 2 mM L-glutamine, 10 mM HEPES, 50 U and 50 ug/ml pen/strep) respectively to yield drugs at 4× the final test concentration containing 0.4% DMSO or 0.4% ethanol. The final concentration of DMSO is 0.1% for all drug dilutions. A concentration titration which brackets the apparent Ki for a test compound determined in an ICE inhibition assay is generally used for the primary compound screen.
We generally test 5-6 compound dilutions and have performed the cellular component of the assay in duplicate, with duplicate ELISA determinations on each cell culture supernatant.
Buffy coat cells isolated from one pint human blood (yielding 40-45 ml final volume plasma plus cells) are diluted with media to 80 ml and LeukoPREP separation tubes (Becton Dickinson) are each overlaid with 10 ml of cell suspension. After 15 min centrifugation at 1500-1800×g, the plasma/media layer is aspirated and then the mononuclear cell layer is collected with a Pasteur pipette and transferred to a 15 ml conical centrifuge tube (Corning). Media is added to bring the volume to 15 ml, gently mix the cells by inversion and centrifuge at 300×g for 15 min. Resuspend the PBMC pellet in a small volume of media, count cells and adjust to 6×10^6 cells/ml.
For the cellular assay, add 1.0 ml of the cell suspension to each well of a 24-well flat bottom tissue culture plate (Corning), 0.5 ml test compound dilution and 0.5 ml LPS solution (Sigma #L-3012; 20 ng/ml solution prepared in complete RPMI media; final LPS concentration 5 ng/ml). The 0.5 ml additions of test compound and LPS are usually sufficient to mix the contents of the wells. Three control mixtures are run per experiment, with either LPS alone, solvent vehicle control, and/or additional media to adjust the final culture volume to 2.0 ml. The cell cultures are incubated for 16-18 hr at 37° C. in the presence of 5% CO2.
At the end of the incubation period, cells are harvested and transferred to 15 ml conical centrifuge tubes. After centrifugation for 10 min at 200×g, supernatants are harvested and transferred to 1.5 ml Eppendorf tubes. It may be noted that the cell pellet may be utilized for a biochemical evaluation of pre-IL-1β and/or mature IL-1β content in cytosol extracts by western blotting or ELISA with pre-IL-1β specific antisera.
PBMC are isolated and prepared as described above. Media (1.0 ml) is first added to wells followed by 0.5 ml of the PBMC suspension. After a one hour incubation, plates are gently shaken and nonadherent cells aspirated from each well. Wells are then gently washed three times with 1.0 ml of media and final resuspended in 1.0 ml media. The enrichment for adherent cells generally yields 2.5-3.0×10^5 cells per well. […]

Row | Molecule | Ki [1] [nM] | Ki [2] [nM] | IC50 [3] [nM]
1 | CC(=O)N[C@@H](Cc1ccc(O)cc1)C(=O)N[C@H](C(=O)N1CC(OCc2ccccc2)C[C@H]1C(=O)NC(C=O)CC(=O)O)C(C)C (stereo partly drawn) [Compound K, N-[N-Acetyl-tyrosinyl-valinyl-(4-benzyloxy)prolinyl]-3-amino-4-oxobutanoicacid] | 10 | 2 | 2000 to 11000
2 | N-(N-Acetyl-tyrosinyl-valinyl-pipecolyl)-3-amino-4-oxobutanoic acid [H] | 23 | 4.7 | 6000 to 11000

From US5716929A (Vertex Pharmaceuticals, Inc., priority 1995, dated 1998)
